Measurements as given in US20180263909A1, “DUAL LOADED LIPOSOMAL NANOPARTICLES” (priority 2015, published 2018).

How the values were obtained:
[1] = tested on: MM.1S cells; assay: Cytotoxicity (Cell Counting Kit-8) and Chou-Talalay synergy analysis, MM.1S; type: cell-based; conditions: 25 nM of each drug, 48 h
Description: (§1) Cytotoxicity and Synergy Analysis. 2×10^5 cells/well were plated in a 96-well dish 16 h prior to the experiment. Cells were treated with respective cytotoxic agents at varying concentrations. Cytotoxicity was assessed at 48 h using Cell Counting Kit-8 Reagent (Dojindo Molecular Technologies, Rockville, Mass.).

[2] = tested on: NCI-H929 cells; conditions: 25 nM of each drug, 48 h
Description: as §1

`CC(C)C[C@H](NC(=O)[C@H](CCc1ccccc1)NC(=O)CN1CCOCC1)C(=O)N[C@@H](Cc1ccccc1)C(=O)N[C@@H](CC(C)C)C(=O)[C@@]1(C)CO1` [carfilzomib] was tested, and the cytotoxicity [1] was “minimal cytotoxicity” and the cytotoxicity [2] was “minimal cytotoxicity”.
